Like-named read-outs stand apart in the source and are kept apart here.
Experiments:
[1] = Rapamycin levels in brain regions of AD mice chronically fed rapamycin-supplemented chow; assay type: in vivo; settings: PDAPP transgenic (AD mice), mouse, oral, 2.24 mg/kg body weight/day, AD mice chronically fed rapamycin chow (2.24 mg/kg/day)
Method: The inventors used magnetic resonance imaging (MRI) arterial spin labeling (ASL) techniques in vivo, as well as other functional imaging, in vivo optical imaging, and behavioral and biochemical tools to determine whether rapamycin treatment affects the progression of established deficits in the transgenic PDAPP mouse model of Alzheimer's Disease (Galvan, et al., 2005; Hsia, et al., 1999; Mucke, et al., 2000) (“AD mice”). AD mice and unaffected littermates were treated with rapamycin after the onset of AD-like impairments at 7 months of age (Galvan, et al., 2005; Hsia, et al., 1999; Mucke, et al., 2000) for a total of 16 weeks. Rapamycin levels in brain regions of AD mice chronically fed with rapamycin ranged from 0.98 to 2.40 pg/mg. Levels in hippocampus were 1.55 pg/mg (see FIG. 5).
Rapamycin treatment. Mice were fed chow containing either microencapsulated enteric-coated rapamycin at 2.24 mg/kg or a control diet as described by Harrison et al., 2009. Rapamycin was used at 14 mg per kg food (verified by HPLC). On the assumption that the average mouse weighs 30 gm and consumes 5 gm of food/day, this dose supplied 2.24 mg rapamycin per kg body weight/day (Harrison, et al., 2009). All mice were given ad libitum access to rapamycin or control food and water for the duration of the experiment. Body weights and food intake were measured weekly. […]

[2] = system: cortical vessels; assay: In vivo 2-photon imaging of cortical vessel diameter; parameters: species or system mouse
From the text: (§1) In vivo imaging experiments. Details of experimental procedures were identical to our previously published protocols (Zheng, et al., 2010). Briefly, mice were anesthetized with volatile isoflurane through a nosecone (3% induction, 1.5% maintenance). The depth of anesthesia was monitored by regular checking of whisker movement and the pinch withdrawal reflex of the hind limb and tail. Also, during surgery and imaging, three main vital signs including heart rate, respiratory rate, and oxygen saturation were periodically assessed by use of the MouseOx system (STARR Life Sciences). Body temperature was maintained at 37° C. by use of feedback-controlled heating pad (Gaymar T/Pump). Initially, the scalp was shaved, incised along the midline and retracted to expose the dorsal skull. Then removal of periosteum by forceps and cleaning of skull by a sterile cotton swab were performed. A stainless steel head plate was glutted (VetBond, 3M, St. Paul, Minn.) to dorsal skull and screwed to a custom-made stereotaxic frame. To create a thin-skull cranial window over the somotosensory cortex, skull was initially thinned by high-speed electric drill (Fine Science Tools, Foster City, Calif.) and subsequently thinned to approximate 50 μm by using a surgical blade under a dissecting microscope (Nikon SMZ800). […] The diameter of blood vessels was analyzed by Image J plugin vessel diameter. […]

[3] = Body weight and food intake during rapamycin feeding; assay type: in vivo, mouse
Method: Rapamycin treatment. Mice were fed chow containing either microencapsulated enteric-coated rapamycin at 2.24 mg/kg or a control diet as described by Harrison et al., 2009. Rapamycin was used at 14 mg per kg food (verified by HPLC). On the assumption that the average mouse weighs 30 gm and consumes 5 gm of food/day, this dose supplied 2.24 mg rapamycin per kg body weight/day (Harrison, et al., 2009). All mice were given ad libitum access to rapamycin or control food and water for the duration of the experiment. Body weights and food intake were measured weekly. […] Littermates (transgenic and non-transgenic mice) were housed together, thus we could not distinguish effects of genotype on food consumption. Even though there were no differences in food consumption, body weights of rapamycin-fed non-transgenic, but not transgenic, females increased moderately during treatment, (6.8% increase for rapamycin-fed vs control-fed non-transgenic females). The higher increase in body weight for non-transgenic animals is not unexpected, since non-transgenic animals of both genders tend to be slightly (1-3 g) heavier than AD transgenic.

[4] = system: AD mice; assay: Cerebral blood flow by MRI continuous arterial spin labeling; assay type: in vivo, mouse; settings: rapamycin-fed 16 weeks, then L-NAME for 4 additional weeks
Method: Rapamycin treatment. Mice were fed chow containing either microencapsulated enteric-coated rapamycin at 2.24 mg/kg or a control diet as described by Harrison et al., 2009. Rapamycin was used at 14 mg per kg food (verified by HPLC). On the assumption that the average mouse weighs 30 gm and consumes 5 gm of food/day, this dose supplied 2.24 mg rapamycin per kg body weight/day (Harrison, et al., 2009). All mice were given ad libitum access to rapamycin or control food and water for the duration of the experiment. Body weights and food intake were measured weekly. […] Littermates (transgenic and non-transgenic mice) were housed together, thus we could not distinguish effects of genotype on food consumption. […]
Animal Preparation for Functional Neuroimaging. […] Respiration rate (90-130 bpm) and rectal temperature (37±0.5° C.) were continuously monitored. Heart rate and blood oxygen saturation level (SaO2) were recorded using a MouseOx system (STARR Life Science Corp., Oakmont, Pa.) and maintained within normal physiological ranges.
Cerebral Blood Flow. Quantitative CBF (with unit of […]) was measured using the MRI based continuous arterial spin labeling (CASL) techniques (Duong, et al., 2000; Muir, et al., 2008) on a horizontal 7T/30 cm magnet and a 40G/cm BGA12S gradient insert (Bruker, Billerica, Mass.). […]

[5] = system: NO production in cortical vessels; assay: In vivo imaging of NO production in cortical vessels with NO-sensitive probe DAF-FM; parameters: species or system mouse; settings: L-NAME 30 mg/kg intraperitoneally before rapamycin
From the text: as §1

concentration at 16 weeks ([1]; hippocampus, read-out: Rapamycin levels in hippocampus) [ng/g]	concentration at 16 weeks ([1]; range over brain regions, read-out: Rapamycin levels in brain regions) [ng/g]	SMILES	Increase in diameter of small and medium-sized cortical vessels ([2]; rapamycin 10 mg/kg intraperitoneally, 10 min after administration)	Food consumption ([3]; control- vs rapamycin-fed groups)	Body weight increase, rapamycin-fed vs control-fed ([3]; non-transgenic females, during treatment) [%]	CBF in rapamycin-fed AD mice injected with L-NAME [4]	Effect of L-NAME pretreatment on rapamycin-induced vasodilation ([2]; L-NAME 30 mg/kg intraperitoneally before rapamycin)	Effect of L-NAME pretreatment on rapamycin-induced NO release [5]
1.55	0.98 to 2.4	CO[C@H]1C[C@@H]2CC[C@@H](C)[C@@](O)(O2)C(=O)C(=O)N2CCCC[C@H]2C(=O)O[C@H]([C@H](C)C[C@@H]2CC[C@@H](O)[C@H](OC)C2)CC(=O)[C@H](C)/C=C(\C)[C@@H](O)[C@@H](OC)C(=O)[C@H](C)C[C@H](C)/C=C/C=C/C=C/1C [rapamycin]	23-35%	comparable	6.8	–	–	–
–	–	COC(=O)[C@@H](N)CCCNC(=N)N[N+](=O)[O-] [L-NAME, L-NG-Nitroarginine methyl ester]	–	–	–	CBF deficits comparable to control-fed AD mice	abrogated	abrogated

— US20150290176A1, “USE OF MTOR INHIBITORS TO TREAT VASCULAR COGNITIVE IMPAIRMENT” (THE BOARD OF REGENTS OF THE UNIVERSITY OF TEXAS SYSTEM, priority 2012, published 2015)
